Test results taken from patent publication US20040242572A1 (Boehringer Ingelheim International GmbH, priority 2002, published 2004).

Legend:
[1] = target: T1, hMCH-1R (Homo sapiens, UniProt Q99705); experiment: MCH-1 receptor binding test (125I-MCH binding to membranes of hMCH-1R transfected CHO/Galpha16 cells); conditions: 100 pM 125I-MCH, membranes of CHO/Galpha16 cells with hMCH-1R
T1 construct: expressed in transfected cells; host or cells: CHO/Galpha16 cells, stably transfected; membrane preparation
T1 sequence (Q99705 whole entry): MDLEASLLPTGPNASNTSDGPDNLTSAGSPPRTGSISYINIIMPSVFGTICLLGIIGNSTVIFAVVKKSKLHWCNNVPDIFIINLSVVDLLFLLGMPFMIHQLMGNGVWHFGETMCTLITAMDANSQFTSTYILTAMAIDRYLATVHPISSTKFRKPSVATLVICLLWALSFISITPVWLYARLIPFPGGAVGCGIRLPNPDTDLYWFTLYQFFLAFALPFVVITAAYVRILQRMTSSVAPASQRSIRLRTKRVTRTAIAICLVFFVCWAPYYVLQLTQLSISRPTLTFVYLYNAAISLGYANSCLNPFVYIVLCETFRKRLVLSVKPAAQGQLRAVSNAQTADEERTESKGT
Description: Membranes from CHO/Galpha16 cells stably transfected with human hMCH-1R are resuspended using a syringe (needle 0.6×25 mm) and diluted in test buffer (50 mM HEPES, 10 mM MgCl2, 2 mM EGTA, pH 7.00; 0.1% bovine serum albumin (protease-free), 0.021% bacitracin, 1 μg/ml aprotinin, 1 μg/ml leupeptin and 1 μM phosphoramidone) to a concentration of 5 to 15 μg/ml. […] After the incubation the reaction is filtered using a cell harvester through 0.5% PEI treated glass fibre filters (GF/B, Unifilter Packard). The membrane-bound radioactivity retained on the filter is then determined after the addition of scintillator substance (Packard Microscint 20) in a measuring device (TopCount of Packard).
The non-specific binding is defined as bound radioactivity in the presence of 1 micromolar MCH during the incubation period.
The analysis of the concentration binding curve is carried out on the assumption of one receptor binding site.

Compound	melting point [°C]	IC50 [1] [nM]
O=c1c2ccc(-c3ccc(Cl)cc3)cc2ncn1CCc1ccc(CN2CCOCC2)cc1 [Example 1.16, 7-(4-chloro-phenyl)-3-[2-(4-morpholin-4-ylmethyl-phenyl)-ethyl]-3H-quinazolin-4-one]	169 to 170	
CCc1ccc(-c2ccc3c(=O)n(CCc4ccc(CN5CCCC5)cc4)cnc3c2)cc1 [Example 1.8, 7-(4-Ethyl-phenyl)-3-[2-(4-pyrrolidin-1-ylmethyl-phenyl)-ethyl]-3H-quinazolin-4-one]	165 to 166	
CN1CCN(C(=O)c2ccc(CCNC(=O)c3ccc(-c4ccc(Cl)cc4)cc3)cc2)CC1 [Example 2.51, 4′-chloro-biphenyl-4-carboxylic acid-{2-[4-(4-methyl-piperazine-1-carbonyl)-phenyl]-ethyl}-amide]	217 to 218	
CN1CCN(c2ccc(CCn3cnc4cc(-c5ccc(Cl)cc5)ccc4c3=O)cn2)CC1 [Example 1.17, 7-(4-chloro-phenyl)-3-{2-[6-(4-methyl-piperazin-1-yl)-pyridin-3-yl]-ethyl}-3H-quinazolin-4-one]	263 to 264	
O=c1c2ccc(-c3ccc(F)cc3)cc2ncn1CCc1ccc(CN2CCCC2)cc1 [Example 1.7, 7-(4-fluoro-phenyl)-3-[2-(4-pyrrolidin-1-ylmethyl-phenyl)-ethyl]-3H-quinazolin-4-one]	160 to 161	
O=c1c2ccc(-c3ccc(Cl)c(Cl)c3)cc2ncn1CCc1ccc(CN2CCCC2)cc1 [Example 1.5, 7-(3,4-dichloro-phenyl)-3-[2-(4-pyrrolidin-1-ylmethyl-phenyl)-ethyl]-3H-quinazolin-4-one]	148 to 149	
O=c1c2ccc(-c3ccc(C(F)(F)F)cc3)cc2ncn1CCc1ccc(CN2CCCC2)cc1 [Example 1.3, 3-[2-(4-pyrrolidin-1-ylmethyl-phenyl)-ethyl]-7-(4-trifluormethyl-phenyl)-3H-quinazolin-4-one]	179 to 181	
Cc1ccc(C2CCN(C(=O)NCCc3ccc(CN4CCCC4)cc3)CC2)cc1 [Example 2.12, 4-methylphenyl-piperidine-1-carboxylic acid-[2-(4-pyrrolidin-1-ylmethyl-phenyl)-ethyl]-amide]		30.5
O=c1c2ccc(-c3ccc(Cl)cc3)cc2ncn1CCc1ccc(CN2CC=C(c3ccccc3)CC2)cc1 [Example 1.24, 7-(4-chloro-phenyl)-3-{2-[4-(4-phenyl-3.6-dihydro-2H-piperidin-1-ylmethyl)-phenyl]-ethyl}-3H-quinazolin-4-one]	166 to 167	
CCN(CC)Cc1ccc(CCNC(=O)c2ccc(-c3ccc(OC)cc3)cc2)cc1 [Example 2.4, 4′-methoxy-biphenyl-4-carboxylic acid-[2-(4-diethylaminomethyl-phenyl)-ethyl]-amide]		3.5
CN(C)Cc1ccc(CCn2cnc3cc(-c4ccc(Cl)cc4)ccc3c2=O)cc1 [Example 1.14, 7-(4-chloro-phenyl)-3-[2-(4-dimethylaminomethyl-phenyl)-ethyl]-3H-quinazolin-4-one]	183	2.1
O=c1c2ccc(-c3ccc(Cl)cc3)cc2ncn1CCc1ccc(CN2CCC(O)(c3ccccc3)CC2)cc1	204 to 205	
COC[C@@H]1CCCN1Cc1ccc(CCn2cnc3cc(-c4ccc(Cl)cc4)ccc3c2=O)cc1 [Example 1.13, 7-(4-chloro-phenyl)-3-{2-[4-((S)-2-methoxymethyl-pyrrolidin-1-ylmethyl)-phenyl]-ethyl}-3H-quinazolin-4-one]	133 to 135	
O=c1c2ccc(-c3ccc(Cl)cc3)cc2ncn1CCc1ccc(CN2CCC3(CCCCC3)CC2)cc1 [Example 1.25, 7-(4-chloro-phenyl)-3-{2-[4-(3-Aza-spiro[5.5]undec-3-ylmethyl)-phenyl]-ethyl}-3H-quinazolin-4-one]	184 to 185	
CN1CCN(c2ccc(CCNC(=O)c3ccc(-c4ccc(Cl)cc4)cc3)cn2)CC1 [Example 2.50, 4′-chloro-biphenyl-4-carboxylic acid-{2-[6-(4-methyl-piperazin-1-yl)-pyridin-3-yl]-ethyl}-amide]	211 to 213	
O=c1c2ccc(-c3ccc(Cl)cc3)cc2ncn1CCc1ccc(CN2CCC(c3ccccc3)CC2)cc1 [Example 1.21, 7-(4-chloro-phenyl)-3-{2-[4-(4-phenyl-piperidin-1-ylmethyl)-phenyl]-ethyl}-3H-quinazolin-4-one]	178 to 179	
O=c1c2ccc(-c3ccc(Cl)cc3)cc2ncn1CCc1ccc(CN2CCC(Oc3ccccn3)CC2)cc1 [Example 1.26, 7-(4-chloro-phenyl)-3-(2-{4-[4-(pyridin-2-yloxy)-piperidin-1-ylmethyl]-phenyl}-ethyl)-3H-quinazolin-4-one]	154 to 158	
O=c1c2ccc(-c3ccc(Cl)cc3)cc2ncn1CCc1ccc(CN2CCN(c3ccccc3)CC2)cc1 [Example 1.22, 7-(4-chloro-phenyl)-3-{2-[4-(4-phenyl-piperazin-1-ylmethyl)-phenyl]-ethyl}-3H-quinazolin-4-one]	199 to 200	
O=c1c2ccc(-c3ccc(Cl)cc3)cc2ncn1CCc1ccc(CN2CCC(Nc3ccccn3)CC2)cc1 [Example 1.27, 7-(4-chloro-phenyl)-3-(2-{4-[4-(pyridin-2-ylamino)-piperidin-1-ylmethyl]-phenyl}-ethyl)-3H-quinazolin-4-one]	164 to 166	
COc1ccc(-c2ccc3c(=O)n(CCc4ccc(CN5CCCC5)cc4)cnc3c2)cc1 [Example 1.4, 7-(4-Methoxy-phenyl)-3-[2-(4-pyrrolidin-1-ylmethyl-phenyl)-ethyl]-3H-quinazolin-4-one]	143 to 144	

More lines, now with the values ahead:

melting point [°C]	IC50 [1] [nM]	Compound
147 to 148		O=c1c2ccc(-c3ccc(Cl)cc3)cc2nnn1Cc1ccc(CN2CCCC2)cc1 [Example 1.19, 7-(4-chloro-phenyl)-3-(4-pyrrolidin-1-ylmethyl-benzyl)-3H-benzo[d][1,2,3]triazin-4-one]
165 to 166		O=c1c2ccc(-c3ccc(Cl)cc3)cc2nnn1CCc1ccc(CN2CCC3(CCCCC3)CC2)cc1 [Example 1.30, 7-(4-chloro-phenyl)-3-{2-[4-(3-aza-spiro[5.5]undec-3-ylmethyl)-phenyl]-ethyl}-3H-benzo[d][1,2,3]triazin-4-one]
151 to 152		O=c1c2ccc(-c3ccc(Cl)cc3)cc2nnn1CCc1ccc(CN2CCCC2)cc1 [Example 1.18, 7-(4-chloro-phenyl)-3-[2-(4-pyrrolidin-1-ylmethyl-phenyl)-ethyl]-3H-benzo[d][1,2,3]triazin-4-one]
136 to 137		O=c1c2ccc(-c3ccc(Cl)cc3)cc2ccn1CCc1ccc(CN2CCCC2)cc1 [Example 1.31, 6-(4-chloro-phenyl)-2-[2-(4-pyrrolidin-1-ylmethyl-phenyl)-ethyl]-2H-isoquinolin-1-one]
157 to 158		Cc1ccc(-c2ccc3c(=O)n(CCc4ccc(CN5CCCC5)cc4)cnc3c2)cc1 [Example 1.2, 3-[2-(4-Pyrrolidin-1-ylmethyl-phenyl)-ethyl]-7-p-tolyl-3H-quinazolin-4-one]
265 to 266		O=c1c2ccc(-c3ccc(Cl)cc3)cc2nnn1CCc1ccc(CN2CCC(O)(c3ccccc3)CC2)cc1
169 to 170		O=c1c2ccc(-c3ccc(Cl)cc3)cc2ncn1CCc1ccc(CN2CCCCC2)cc1 [Example 1.15, 7-(4-chloro-phenyl)-3-[2-(4-piperidin-1-ylmethyl-phenyl)-ethyl]-3H-quinazolin-4-one]
178 to 179		O=c1c2ccc(-c3ccc(Cl)cc3)cc2ncn1CCc1ccc(CN2CCCC2)cc1 [Example 1.1, 7-(4-chloro-phenyl)-3-[2-(4-pyrrolidin-1-ylmethyl-phenyl)-ethyl]-3H-quinazolin-4-one]
160 to 163		Cc1nc2cc(-c3ccc(Cl)cc3)ccc2c(=O)n1CCc1ccc(CN2CCCC2)cc1 [Example 1.11, 7-(4-chloro-phenyl)-2-methyl-3-[2-(4-pyrrolidin-1-ylmethyl-phenyl)-ethyl]-3H-quinazolin-4-one]
183 to 184		O=c1c2ccc(-c3ccc(Cl)cc3)cc2nnn1CCc1ccc(CN2CCC(c3ccccc3)CC2)cc1 [Example 1.28, 7-(4-chloro-phenyl)-3-{2-[4-(4-phenyl-piperidin-1-ylmethyl)-phenyl]-ethyl}-3H-benzo[d][1,2,3]triazin-4-one]
274 to 276		O=c1[nH]c2cc(-c3ccc(Cl)cc3)ccc2c(=O)n1CCc1ccc(CN2CCCC2)cc1 [Example 1.12, 7-(4-chloro-phenyl)-3-[2-(4-pyrrolidin-1-ylmethyl-phenyl)-ethyl]-1H-quinazolin-2,4-dione]
